Data taken from PubChem BioAssay (NCI).
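Test compounds were applied to cells in 96-well plates for 48 hours at 5 doses. TGI denotes the concentration required for complete inhibition of growth.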

Key:
Experiment in all cases: growth of human tumour cells (NCI), 48 h
MALME-3M melanoma = test system: MALME-3M melanoma
HS 578T breast = test system: HS 578T breast
NCI-H23 lung = test system: NCI-H23 lung
RXF 393 renal = test system: RXF 393 renal
ACHN renal = test system: ACHN renal
HL-60(TB) leukemia = test system: HL-60(TB) leukemia
UO-31 renal = test system: UO-31 renal
NCI-H460 lung = test system: NCI-H460 lung
HT29 colon = test system: HT29 colon
SR leukemia = test system: SR leukemia
HOP-62 NSCLC = test system: HOP-62 NSCLC
NCI/ADR-RES ovarian = test system: NCI/ADR-RES ovarian
SF-295 CNS = test system: SF-295 CNS
U251 CNS = test system: U251 CNS
NCI-H522 lung = test system: NCI-H522 lung
SK-MEL-5 melanoma = test system: SK-MEL-5 melanoma
MDA-N = test system: MDA-N
SK-MEL-28 melanoma = test system: SK-MEL-28 melanoma
A549 NSCLC = test system: A549 NSCLC
SF-539 CNS = test system: SF-539 CNS
T-47D breast = test system: T-47D breast
PC-3 prostate = test system: PC-3 prostate
KM12 colon = test system: KM12 colon
BT-549 breast = test system: BT-549 breast
SW-620 colon = test system: SW-620 colon
A498 renal = test system: A498 renal
SNB-75 CNS = test system: SNB-75 CNS
SK-OV-3 ovarian = test system: SK-OV-3 ovarian
MCF7 breast = test system: MCF7 breast
SK-MEL-2 melanoma = test system: SK-MEL-2 melanoma
CCRF-CEM leukemia = test system: CCRF-CEM leukemia
HOP-92 NSCLC = test system: HOP-92 NSCLC
UACC-62 melanoma = test system: UACC-62 melanoma
IGROV1 ovarian = test system: IGROV1 ovarian
OVCAR-4 ovarian = test system: OVCAR-4 ovarian
CAKI-1 renal = test system: CAKI-1 renal
RPMI-8226 leukemia = test system: RPMI-8226 leukemia
786-0 renal = test system: 786-0 renal
MDA-MB-231 breast = test system: MDA-MB-231 breast
NCI-H226 lung = test system: NCI-H226 lung
HCT-15 colon = test system: HCT-15 colon
UACC-257 melanoma = test system: UACC-257 melanoma
SN12C renal = test system: SN12C renal
MOLT-4 leukemia = test system: MOLT-4 leukemia
HCT-116 colon = test system: HCT-116 colon
SNB-19 CNS = test system: SNB-19 CNS
MDA-MB-435 = test system: MDA-MB-435
COLO 205 colon = test system: COLO 205 colon
DU-145 prostate = test system: DU-145 prostate
EKVX NSCLC = test system: EKVX NSCLC
OVCAR-8 ovarian = test system: OVCAR-8 ovarian
LOX IMVI melanoma = test system: LOX IMVI melanoma
TK-10 renal = test system: TK-10 renal
OVCAR-3 ovarian = test system: OVCAR-3 ovarian
SF-268 CNS = test system: SF-268 CNS
OVCAR-5 ovarian = test system: OVCAR-5 ovarian
K-562 leukemia = test system: K-562 leukemia
M14 melanoma = test system: M14 melanoma
DMS 114 small cell lung = test system: DMS 114 small cell lung
HCC-2998 colon = test system: HCC-2998 colon
DMS 273 small cell lung = test system: DMS 273 small cell lung
KM20L2 colon = test system: KM20L2 colon
SNB-78 CNS = test system: SNB-78 CNS
DLD-1 colon = test system: DLD-1 colon
LXFL 529 NSCLC = test system: LXFL 529 NSCLC
M19-MEL melanoma = test system: M19-MEL melanoma

CCn1c(-c2ccc(OC(C)=O)cc2)c(C)c2cc(OC(C)=O)ccc21 showed a TGI (MALME-3M melanoma) of 76 µM, a TGI (HS 578T breast) of 54.4 µM and a TGI (NCI-H23 lung) of 57.4 µM. For the same molecule, the TGI (RXF 393 renal) was 25.6 µM, the TGI (ACHN renal) was greater than 100 µM and the TGI (HL-60(TB) leukemia) was 42.9 µM. The TGI (UO-31 renal) was 47.9 µM, the TGI (NCI-H460 lung) was 56.4 µM and the TGI (HT29 colon) was 89.6 µM. It also gave a TGI (SR leukemia) of 30.8 µM, a TGI (HOP-62 NSCLC) of 47.7 µM and a TGI (NCI/ADR-RES ovarian) greater than 100 µM. For the same molecule, the TGI (SF-295 CNS) was 96.7 µM, the TGI (U251 CNS) was 26.2 µM and the TGI (NCI-H522 lung) was 40 µM. It also gave a TGI (SK-MEL-5 melanoma) of 27.1 µM, a TGI (MDA-N) of 77.9 µM and a TGI (SK-MEL-28 melanoma) of 59.1 µM. For the same molecule, the TGI (A549 NSCLC) was 67.9 µM, the TGI (SF-539 CNS) was 43.5 µM and the TGI (T-47D breast) was 60.5 µM. For the same molecule, the TGI (PC-3 prostate) was 44.1 µM, the TGI (KM12 colon) was 36.8 µM and the TGI (BT-549 breast) was 88.8 µM. It also gave a TGI (SW-620 colon) of 82.2 µM, a TGI (A498 renal) of 70.4 µM and a TGI (SNB-75 CNS) of 50.2 µM. It also gave a TGI (SK-OV-3 ovarian) of 74.5 µM, a TGI (MCF7 breast) of 40.4 µM and a TGI (SK-MEL-2 melanoma) of 37.2 µM. For the same molecule, the TGI (CCRF-CEM leukemia) was 53.9 µM, the TGI (HOP-92 NSCLC) was greater than 100 µM and the TGI (UACC-62 melanoma) was 28.3 µM. The TGI (IGROV1 ovarian) was greater than 100 µM, the TGI (OVCAR-4 ovarian) was 59.8 µM and the TGI (CAKI-1 renal) was greater than 100 µM. It also gave a TGI (RPMI-8226 leukemia) of 42.6 µM, a TGI (786-0 renal) of 86.9 µM and a TGI (MDA-MB-231 breast) of 38.3 µM. The TGI (NCI-H226 lung) was greater than 100 µM, the TGI (HCT-15 colon) was greater than 100 µM and the TGI (UACC-257 melanoma) was 94.9 µM. It also gave a TGI (SN12C renal) of 79 µM, a TGI (MOLT-4 leukemia) of 34 µM and a TGI (HCT-116 colon) of 22.1 µM. The TGI (SNB-19 CNS) was greater than 100 µM, the TGI (MDA-MB-435) was 33.7 µM and the TGI (COLO 205 colon) was 47.4 µM. For the same molecule, the TGI (DU-145 prostate) was 43.3 µM, the TGI (EKVX NSCLC) was 71.4 µM and the TGI (OVCAR-8 ovarian) was greater than 100 µM. The TGI (LOX IMVI melanoma) was 30.6 µM, the TGI (TK-10 renal) was 74.3 µM and the TGI (OVCAR-3 ovarian) was 42.1 µM. It also gave a TGI (SF-268 CNS) of 58.5 µM, a TGI (OVCAR-5 ovarian) of 55 µM and a TGI (K-562 leukemia) of 55.3 µM. For the same molecule, the TGI (M14 melanoma) was 38.9 µM.

With O=C(CN(c1ccccc1)c1ccccc1)n1nnc2ccccc21 the TGI (MALME-3M melanoma) was greater than 100 µM, the TGI (NCI-H23 lung) was greater than 100 µM and the TGI (RXF 393 renal) was greater than 100 µM. The TGI (ACHN renal) was greater than 100 µM, the TGI (HL-60(TB) leukemia) was greater than 100 µM and the TGI (UO-31 renal) was 55.2 µM. The TGI (DMS 114 small cell lung) was 85.7 µM, the TGI (NCI-H460 lung) was greater than 100 µM and the TGI (HT29 colon) was greater than 100 µM. It also gave a TGI (SR leukemia) greater than 100 µM, a TGI (HOP-62 NSCLC) greater than 100 µM and a TGI (SF-295 CNS) greater than 100 µM. It also gave a TGI (U251 CNS) greater than 100 µM, a TGI (NCI-H522 lung) of 59.1 µM and a TGI (SK-MEL-5 melanoma) of 69.3 µM. The TGI (HCC-2998 colon) was greater than 100 µM, the TGI (SK-MEL-28 melanoma) was greater than 100 µM and the TGI (A549 NSCLC) was greater than 100 µM. For the same molecule, the TGI (SF-539 CNS) was greater than 100 µM, the TGI (DMS 273 small cell lung) was greater than 100 µM and the TGI (KM20L2 colon) was greater than 100 µM. It also gave a TGI (SW-620 colon) greater than 100 µM, a TGI (SNB-75 CNS) greater than 100 µM and a TGI (SNB-78 CNS) greater than 100 µM. For the same molecule, the TGI (SK-OV-3 ovarian) was greater than 100 µM, the TGI (SK-MEL-2 melanoma) was 96 µM and the TGI (CCRF-CEM leukemia) was greater than 100 µM. For the same molecule, the TGI (DLD-1 colon) was greater than 100 µM, the TGI (UACC-62 melanoma) was greater than 100 µM and the TGI (IGROV1 ovarian) was greater than 100 µM. The TGI (CAKI-1 renal) was greater than 100 µM, the TGI (RPMI-8226 leukemia) was greater than 100 µM and the TGI (786-0 renal) was greater than 100 µM. It also gave a TGI (NCI-H226 lung) greater than 100 µM, a TGI (HCT-15 colon) greater than 100 µM and a TGI (UACC-257 melanoma) greater than 100 µM. The TGI (LXFL 529 NSCLC) was greater than 100 µM, the TGI (SN12C renal) was greater than 100 µM and the TGI (MOLT-4 leukemia) was greater than 100 µM. The TGI (HCT-116 colon) was 84.7 µM, the TGI (SNB-19 CNS) was greater than 100 µM and the TGI (M19-MEL melanoma) was 48.6 µM. It also gave a TGI (COLO 205 colon) greater than 100 µM, a TGI (EKVX NSCLC) greater than 100 µM and a TGI (OVCAR-8 ovarian) greater than 100 µM. For the same molecule, the TGI (LOX IMVI melanoma) was 70.3 µM, the TGI (TK-10 renal) was greater than 100 µM and the TGI (OVCAR-3 ovarian) was greater than 100 µM. For the same molecule, the TGI (SF-268 CNS) was greater than 100 µM, the TGI (OVCAR-5 ovarian) was greater than 100 µM and the TGI (K-562 leukemia) was greater than 100 µM. It also gave a TGI (M14 melanoma) greater than 100 µM.
